Values after ≈ are worked out from the molar mass of the structure shown.

Series [1] relates to OVCAR4, Kuramochi, MOSE and MOE cell lines. Put plainly: Cytotoxicity panel of cancerous and non-cancerous cell lines (overall statements, selectivity). Type of series: cell-based. Particulars: for Cytotoxicity in the cell line panel (in words): OVCAR4, Kuramochi, MOSE, MOE. As for the experimental part:
(§1) Following their identification, compounds 1–5 were assessed for cytotoxicity in two high-grade ovarian cancer cell lines, OVCAR4 and Kuramochi. Potential for selective cytotoxicity was evaluated using two non-cancerous mouse cell lines representing the putative progenitor cells of ovarian cancer, murine ovarian surface epithelial (MOSE) and murine oviductal epithelial (MOE). […] Generally speaking, this para-quinone scaffold is not an attractive lead, as higher toxicity in non-tumorigenic cell lines confers serious overall toxicity.
(§2) Human ovarian OVCAR4 and Kuramochi cancer cells were maintained in RPMI 1640 (11875-093, Life-technologies; Carlsbad, CA, USA) supplemented with 10% FBS (16000-044, Life-technologies; Carlsbad, CA, USA) and 1% penicillin/streptomycin. Non-cancerous murine ovarian surface epithelium (MOSE) and murine oviductal epithelium (MOE) cells were maintained as previously reported. Concentration-response experiments were performed as previously described for 72 h.

Series [2] has as its system M. tuberculosis H37Rv ATCC 27294. Put plainly: Microplate alamar blue assay (MABA), replicating M. tuberculosis. Particulars: for MIC: Mycobacterium tuberculosis, MIC = lowest concentration giving ≥90% growth inhibition, averaged from triplicates. Format: cell-based.
For series [3] the test system is unchanged. Put plainly: Low oxygen recovery assay (LORA), non-replicating M. tuberculosis. The note with it: Mycobacterium tuberculosis. Type of series: cell-based.
The test system of another series is Kuramochi. Put plainly: cells. Format: cell-based. Particulars: Homo sapiens, 72 h, read-out: Cytotoxicity LC50 Kuramochi. How it is done: as §1, §2
The subject of a further series is OVCAR4. Put plainly: cells. The note with it: Homo sapiens, OVCAR-4, 72 h, read-out: Cytotoxicity LC50 OVCAR4. Format: cell-based. How it is done:
as §1, §2

In series [4] the test system is wide range of cancer cell lines. Particulars: previous reports; cited from earlier work.
In series [5] the test system is panel of Gram-negative and Gram-positive bacteria. More on the design: method as in PMID 2925509. Particulars: cited from earlier work.
A further series has as its system Eimeria tenella. More on the design: method as in PMID 7451359, PMID 7451360. Particulars: apicomplexan poultry parasite Eimeria tenella; cited from earlier work.
Series [6] has as its system two fungal species, a human parasite, and several Gram-negative and Gram-positive bacteria. Also on record: method as in PMID 7451359, PMID 7451360. The note with it: cited from earlier work.
The subject of series [7] is L1210 lymphocytic leukemia cells. Also on record: method as in PMID 11395569. Particulars: L1210 lymphocytic leukemia cells in vitro; read-out: IC50 range, inhibition of tumor cell proliferation and viability; cited from earlier work.

Turning to `C=C[C@@]1(C)CCC2=C(CC[C@H]3C(C)(C)[C@@H](O)C(=O)C[C@]23C)C1` [Compound 1, isopimara-2-one-3-ol-8,15-diene], in series [1], the “Cytotoxicity in the cell line panel (in words)” value (shortened to “Cytotoxicity”) was “not significantly active”. Besides, the “Activity in MABA (in words)” value in [2] was “lacked significant activity”. Further, the MIC (commonly the smallest concentration in the dilution series that meets the test's criterion for growth inhibition) in series [2] is 19.4 µg/mL (≈ 64.1 µM); in [3], more than 50 µg/mL. Moreover, the CC50 in the series with Kuramochi and with OVCAR4 was more than 33.1 µM in each case.

With `Cc1cc(O)c2c(c1)COC1=C2C(=O)c2cccc(O)c2C1=O` [Compound 2, lagumycin B], the MIC in series [2] is 2.01 µg/mL (≈ 6.52 µM); in series [3], 25.7 µg/mL (≈ 83.4 µM). Besides, the CC50 with Kuramochi and in the series with OVCAR4 was more than 32.5 µM throughout.

As to `Cc1cc(O)c2c3c(c(O)cc2c1)C(=O)c1c(O)cccc1C3=O` [Compound 3, dehydrorabelomycin], in [1], the “Cytotoxicity” value is reported as “non-specifically cytotoxic”. Besides, in series [4], the “Inhibition of cancer cell lines (in words)” value is recorded as “inhibited a wide range of cancer cell lines at micromolar potency”. Besides, the “Antibacterial activity (in words)” value in series [5] is recorded as “no detectable activity”. For the same compound, the minimum inhibitory concentration (MIC) in series [2] is 1.01 µg/mL (≈ 3.15 µM); in series [3], 19.6 µg/mL (≈ 61.2 µM). In addition, the CC50 in the series on Kuramochi is 6.72 µM; in the series with OVCAR4, 11 µM.

For `Cc1cc(O)c2c3c(ncc2c1)C(=O)c1c(O)cccc1C3=O` [Compound 4, phenanthroviridone], the “Cytotoxicity” value in series [1] was “non-specifically cytotoxic”. Further, the MIC in series [2] worked out at 0.72 µg/mL (≈ 2.36 µM); in series [3] it was 17.8 µg/mL (≈ 58.3 µM). Also, the results for the CC50 with Kuramochi and in the series with OVCAR4 were 1.11 µM and 4.82 µM, respectively.

Take `COc1cc(C)cc2c(=O)oc3c(c12)C(=O)c1cccc(O)c1C3=O` [Compound 5, WS-5995 A]: the “Greater activity toward Kuramochi ovarian cancer cells” value in [1] (Kuramochi versus the other cell lines of the panel) was “approximately seven-fold”. In series [1], the “Cytotoxicity” value was “enhanced cytotoxicity against the Kuramochi cell line when compared to non-tumorigenic cell lines”. The “Anticoccidial activity (in words)” value in the series with Eimeria tenella is “anticoccidial activity”. In series [6], the “Biological activity against antimicrobial panel (in words)” value is listed as “no significant biological activity”. Besides, in series [7], the IC50 is 0.24 to 0.65 µM. Further, in [2], the “Activity in MABA (in words)” value is reported as “lacked significant activity”. The values for the MIC in series [2] and in [3] were 22.7 µg/mL (≈ 67.5 µM) and more than 50 µg/mL, respectively. The results for the CC50 in the series with Kuramochi and in the series on OVCAR4 were 18.6 µM and 127 µM, respectively.

For the compound `COc1cccc2c1C(=O)c1c(O)c3c(c(O)c1C2=O)C[C@@](O)(C(=O)CO)C[C@@H]3O[C@H]1C[C@H](N)[C@H](O)[C@H](C)O1` [Doxorubicin, reference compound], the CC50 with Kuramochi and with OVCAR4 was less than 0.078 µM in each case.

The record behind these values is article PMC4584356, “A Pimarane Diterpene and Cytotoxic Angucyclines from a Marine-Derived Micromonospora sp. in Vietnam’s East Sea” (Marine Drugs, 2015).
